For the first experiment, the target named is thrombin (Homo sapiens, UniProt P00734). Put plainly: Fibrinogen clotting assay catalyzed by thrombin. Format: biochemical. The conditions noted are these: IC50, nM (25° C.), 25° C.; concentration needed to double the clotting time. As for the experimental part: Curves represent OD420 time course after the addition of 0.6 nM thrombin in the presence of (♦) 0 nM; (◯) 0.5 nM; (□) 1 nM; (Δ) 1.5 nM; (⋄) 2.5 nM; (●) 3.75 nM; (▪) 6.25 nM; and (▴) […] of the inhibitor with linker (GS)n and n=2 (SEQ. ID. NO. 50) (a); n=4 (SEQ. ID. NO. 51) (b); n=6 (SEQ. ID. NO. 52) (c); n=8 (SEQ. ID. NO. 53) (d); n=10 (SEQ. ID. NO. 54) (e); and in the presence of (♦) 0 nM; (◯) 1 nM; (□) 2 nM; (Δ) 4 nM; (⋄) 6 nM; (●) 10 nM; (▪) 15 nM; and (▴) 25 nM of the inhibitor with linker (GS)n and n=12 (SEQ. ID. NO. 55) (f); n=14 (SEQ. ID. NO. 56) (g), at 37° C. The onset clotting time was determined as an intersection of the baseline and the extrapolated linear portion of the OD change curve. […] Curves (i) represent OD420 time course in the presence of (A) 0 nM; (◯) 1 nM; (□) 2 nM; (Δ) 4 nM; (⋄) 6 nM; and (●) 15 nM of the inhibitor with linker […] (SEQ. ID. NO. 103), at 37° C. […] represent OD420 time course in the presence of (◯) 0 nM; (□) 2 nM; (Δ) 4 nM; (⋄) 6 nM; (●) 8 nM; (▪) 10 nM; (▴) 12 nM; and (♦) 15 nM; of the inhibitor with linker […] (SEQ. ID. NO. 58) at 25° C. Curves (k) represent OD420 time course in the presence of (◯) 0 nM; (□) 0.5 nM; (Δ) 1 nM; (⋄) 2 nM; (●) 3 nM; (▪) 4 nM; (▴) 5 nM; and (♦) 6 nM; of the inhibitor with linker […] (SEQ. ID. NO. 105) at 37° C. Curves (I) represent OD420 time course in the presence of (◯) 0 nM; (□) 0.25 nM; (Δ) 0.5 nM; (⋄) 1 nM; (●) 1.5 nM; (▪) 2 nM; and (▴) 2.5 nM; of the inhibitor with linker […] (SEQ. ID. NO. 104) at 37° C. Curves (m) represent OD420 time course in the presence of (◯) 0 nM; (□) 2 nM; (Δ) 4 nM; (⋄) 6 nM; (●) 8 nM; (▴) 10 nM; and (A) 12 nM; of the inhibitor with linker […] (SEQ. ID. NO. 106) at 37° C. Curves (n) represent OD420 time course in the presence of (◯) 0 nM; (□) 1 nM; (Δ) 2 nM; (⋄) 3 nM; (●) 4 nM; (▪) 5 nM; (▴) 6 nM; and (♦) 7 nM; of the inhibitor with linker […] (SEQ. ID. NO. 107) at 37° C. Curves (o) represent OD420 time course in the presence of (◯) 0 nM; (□) 4 nM; and (Δ) 8 nM; of the inhibitor with linker GQSHNR (SEQ. ID. NO. 108) at 37° C.
Other experimental conditions were as used for the assays described in FIG. 2.
Clotting assays were carried out by use of the protocols described previously (DiMaio and others, 1990, 21698-21703; Witting and others, 1992, 737-743). The assay employs bovine plasma fibrinogen dissolved at 0.1% in 50 mM Tris-Cl, 100 mM NaCl, 0.1% PEG-8000 at pH 7.6 (i.e. the clotting buffer). Each assay mixture contained a certain concentration of the peptide, and the reaction was started by the addition of human thrombin to a final concentration of 0.6-1.2 nM. Optical absorbance increase at 420 nm caused by fibrin clot formation was measured at 25° C. or 37° C. using the Spectramax plate reader. The onset clotting time was determined as an intersection of the baseline and the extrapolated linear portion of the OD change curve. The concentration of a peptide needed to double the clotting time was defined as IC50 (DiMaio and others, 1990, 21698-21703). Kinetic amidolytic curves were obtained in clotting buffer at 25° C. using eight inhibitor concentrations and three to five concentrations of the chromogenic substrate S-2238 (Chromogenix) (DiMaio and others, 1990, 21698-21703). Inhibition constants were extracted from Lineweaver-Burk equation by using weighted linear regression. Errors in Ki determination were estimated by using Monte-Carlo sampling with 1-3% variance of the experimental points.
Take `CC[C@H](C)[C@H](NC(=O)[C@H](CCC(=O)O)NC(=O)[C@H](CCC(=O)O)NC(=O)[C@H](Cc1ccccc1)NC(=O)[C@H](CC(=O)O)NC(=O)CNC(=O)[C@H](CO)NC(=O)[C@@H](NC(=O)[C@H](CCCCN)NC(=O)[C@H](CCC(=O)O)NC(=O)[C@H](Cc1ccc(OP(=O)(O)O)cc1)NC(=O)[C@H](Cc1c[nH]cn1)NC(=O)[C@@H]1CCCN1C(=O)[C@H](CO)NC(=O)CNC(=O)[C@H](CO)NC(=O)[C@@H](NC(=O)[C@H](CCCCN)NC(=O)[C@H](CCC(=O)O)NC(=O)[C@H](Cc1ccc(OP(=O)(O)O)cc1)NC(=O)[C@H](Cc1c[nH]cn1)NC(=O)[C@@H]1CCCN1C(=O)[C@H](CO)NC(=O)CNC(=O)[C@H]1CCCCN1C(=O)[C@H](CCCNC(=N)N)NS(=O)(=O)c1ccc(C(C)(C)C)cc1)C(C)C)C(C)C)C(=O)N1CCC[C@H]1C(=O)N[C@@H](CCC(=O)O)C(=O)N[C@@H](CCC(=O)O)C(=O)N[C@@H](Cc1ccc(O)cc1)C(=O)N[C@@H](CC(C)C)C(=O)N[C@@H](CCC(N)=O)C(=O)O` [P3162]: the midpoint of inhibition, the IC50, lay at 19 ± 1 nM.

`CC[C@H](C)[C@H](NC(=O)[C@H](CCC(=O)O)NC(=O)[C@H](CCC(=O)O)NC(=O)[C@H](Cc1ccccc1)NC(=O)[C@H](CC(=O)O)NC(=O)CNC(=O)[C@H](CO)NC(=O)CNC(=O)[C@H](CO)NC(=O)CNC(=O)[C@H](CO)NC(=O)CNC(=O)[C@H](CO)NC(=O)CNC(=O)[C@H](CO)NC(=O)CNC(=O)[C@H](CCCCN)NC(=O)CNC(=O)[C@H](CO)NC(=O)CNC(=O)[C@H](CO)NC(=O)CNC(=O)[C@H](CO)NC(=O)CNC(=O)[C@H](CO)NC(=O)CNC(=O)[C@H]1CCCCN1C(=O)[C@H](CCCNC(=N)N)NS(=O)(=O)c1ccc(C(C)(C)C)cc1)C(=O)N1CCC[C@H]1C(=O)N[C@@H](CCC(=O)O)C(=O)N[C@@H](CCC(=O)O)C(=O)N[C@@H](Cc1ccc(O)cc1)C(=O)N[C@@H](CC(C)C)C(=O)N[C@@H](CCC(N)=O)C(=O)O` [P3174] registered an IC50 of 1.6 ± 0.9 nM. Against the preceding compound, the IC50 is about 12-fold lower.

The experiment is the same for the next values; noted with them: IC50, nM (37° C.), 37° C.; concentration needed to double the clotting time.
For `CC[C@H](C)[C@H](NC(=O)[C@H](CCC(=O)O)NC(=O)[C@H](CCC(=O)O)NC(=O)[C@H](Cc1ccccc1)NC(=O)[C@H](CC(=O)O)NC(=O)CNC(=O)[C@H](CCCNC(=N)N)NC(=O)[C@H](CC(=O)O)NC(=O)[C@H](C)NC(=O)[C@H](CCCNC(=N)N)NC(=O)[C@H](CO)NC(=O)[C@H](CCC(=O)O)NC(=O)[C@H](CCSC)NC(=O)[C@H](Cc1ccc(O)cc1)NC(=O)CNC(=O)[C@H]1CCCCN1C(=O)[C@H](CCCNC(=N)N)NS(=O)(=O)c1ccc(C(C)(C)C)cc1)C(=O)N1CCC[C@H]1C(=O)N[C@@H](CCC(=O)O)C(=O)N[C@@H](CCC(=O)O)C(=O)N[C@@H](Cc1ccc(O)cc1)C(=O)N[C@@H](CC(C)C)C(=O)N[C@@H](CCC(N)=O)C(=O)O` [P3236], inhibition was half-maximal at 1 ± 0.5 nM (IC50).

Take `CC[C@H](C)[C@H](NC(=O)[C@H](CCC(N)=O)NC(=O)[C@@H]1CCCN1C(=O)[C@H](CCCNC(=N)N)NC(=O)[C@@H]1CCCN1C(=O)[C@H](C)NC(=O)[C@H](Cc1c[nH]cn1)NC(=O)[C@H](CO)NC(=O)CNC(=O)[C@H]1CCCCN1C(=O)[C@H](CCCNC(=N)N)NS(=O)(=O)c1ccc(C(C)(C)C)cc1)C(=O)N[C@@H](Cc1c[nH]cn1)C(=O)N[C@@H](CC(N)=O)C(=O)N[C@@H](CC(=O)O)C(=O)NCC(=O)N[C@@H](CC(=O)O)C(=O)N[C@@H](Cc1ccccc1)C(=O)N[C@@H](CCC(=O)O)C(=O)N[C@@H](CCC(=O)O)C(=O)N[C@H](C(=O)N1CCC[C@H]1C(=O)N[C@@H](CCC(=O)O)C(=O)N[C@@H](CCC(=O)O)C(=O)N[C@@H](Cc1ccc(O)cc1)C(=O)N[C@@H](CC(C)C)C(=O)N[C@@H](CCC(N)=O)C(=O)O)[C@@H](C)CC` [P3210]: 0.6 nM corresponded to half-maximal inhibition (IC50).

`CC[C@H](C)[C@H](NC(=O)[C@H](CCC(=O)O)NC(=O)[C@H](CCC(=O)O)NC(=O)[C@H](Cc1ccccc1)NC(=O)[C@H](CC(=O)O)NC(=O)CNC(=O)[C@H](CO)NC(=O)CNC(=O)[C@H](CO)NC(=O)CNC(=O)[C@H](CO)NC(=O)CNC(=O)[C@H](CO)NC(=O)CNC(=O)[C@H](CO)NC(=O)CNC(=O)[C@H](CO)NC(=O)CNC(=O)[C@H](CO)NC(=O)CNC(=O)[C@H](CO)NC(=O)CNC(=O)[C@H]1CCCCN1C(=O)[C@H](CCCN=C(N)N)NS(=O)(=O)c1ccc(C(C)(C)C)cc1)C(=O)N1CCC[C@H]1C(=O)N[C@@H](CCC(=O)O)C(=O)N[C@@H](CCC(=O)O)C(=O)N[C@@H](Cc1ccc(O)cc1)C(=O)N[C@@H](CC(C)C)C(=O)N[C@@H](CCC(N)=O)C(=O)O` [P3152] gave an IC50 of 0.7 ± 0.1 nM.

In turn, `CC[C@H](C)[C@H](NC(=O)[C@H](CCC(=O)O)NC(=O)[C@H](CCC(=O)O)NC(=O)[C@H](Cc1ccccc1)NC(=O)[C@H](CC(=O)O)NC(=O)CNC(=O)[C@H](CC(=O)O)NC(=O)[C@H](CC(N)=O)NC(=O)[C@H](Cc1c[nH]cn1)NC(=O)[C@H](CC(C)C)NC(=O)[C@H](CCC(N)=O)NC(=O)[C@@H]1CCCN1C(=O)[C@H](CCCNC(=N)N)NC(=O)[C@@H]1CCCN1C(=O)[C@@H](NC(=O)[C@@H](NC(=O)[C@H](CO)NC(=O)CNC(=O)[C@H]1CCCCN1C(=O)[C@H](CCCNC(=N)N)NS(=O)(=O)c1ccc(C(C)(C)C)cc1)C(C)C)C(C)C)C(=O)N1CCC[C@H]1C(=O)N[C@@H](CCC(=O)O)C(=O)N[C@@H](CCC(=O)O)C(=O)N[C@@H](Cc1ccc(O)cc1)C(=O)N[C@@H](CC(C)C)C(=O)N[C@@H](CCC(N)=O)C(=O)O` [P3209] yielded an IC50 of 1.1 nM.

In turn, `CC[C@H](C)[C@H](NC(=O)[C@H](CCC(=O)O)NC(=O)[C@H](CCC(=O)O)NC(=O)[C@H](Cc1ccccc1)NC(=O)[C@H](CC(=O)O)NC(=O)CNC(=O)[C@H](CCCNC(=N)N)NC(=O)[C@H](CC(N)=O)NC(=O)[C@H](Cc1c[nH]cn1)NC(=O)[C@H](CO)NC(=O)[C@H](CCC(N)=O)NC(=O)CNC(=O)[C@H]1CCCCN1C(=O)[C@H](CCCNC(=N)N)NS(=O)(=O)c1ccc(C(C)(C)C)cc1)C(=O)N1CCC[C@H]1C(=O)N[C@@H](CCC(=O)O)C(=O)N[C@@H](CCC(=O)O)C(=O)N[C@@H](Cc1ccc(O)cc1)C(=O)N[C@@H](CC(C)C)C(=O)N[C@@H](CCC(N)=O)C(=O)O` [P3238] yielded an IC50 of 2 ± 1 nM.

Turning to `CC[C@H](C)[C@H](NC(=O)[C@H](CCC(=O)O)NC(=O)[C@H](CCC(=O)O)NC(=O)[C@H](Cc1ccccc1)NC(=O)[C@H](CC(=O)O)NC(=O)CNC(=O)[C@H](CO)NC(=O)CNC(=O)[C@H](CO)NC(=O)CNC(=O)[C@H]1CCCCN1C(=O)[C@H](CCCN=C(N)N)NS(=O)(=O)c1ccc(C(C)(C)C)cc1)C(=O)N1CCC[C@H]1C(=O)N[C@@H](CCC(=O)O)C(=O)N[C@@H](CCC(=O)O)C(=O)N[C@@H](Cc1ccc(O)cc1)C(=O)N[C@@H](CC(C)C)C(=O)N[C@@H](CCC(N)=O)C(=O)O` [P3149], half-maximal inhibition (IC50) was put at 9.7 ± 0.7 nM.

The term IC50 denotes the concentration that inhibits the measured activity by half.

For the origin of these results see patent US8063018B2, “Bivalent thrombin binding molecules comprising linkers” (National Research Council of Canada, priority 2004, dated 2011).
